# Reference: paper PMC6471618, “Comparison of the Sulfonamide Inhibition Profiles of the α-Carbonic Anhydrase Isoforms (SpiCA1, SpiCA2 and SpiCA3) Encoded by the Genome of the Scleractinian Coral Stylophora pistillata” (Marine Drugs, 2019)
# Entries after “also recorded” stand apart in the source; their conditions may differ. Where two headings read alike, the source gives them in different places.
# Assays:
# SpiCA3 = SpiCA3 (Stylophora pistillata, UniProt A0A1B0Y357); type: biochemical
# Procedure: An Applied Photophysics stopped-flow instrument (Leatherhead, Surrey (UK)) has been used for assaying the CA catalyzed CO2 hydration activity. […] The un-catalyzed rates were determined in the same manner and subtracted from the total observed rates. […] The inhibition constants were obtained by non-linear least-squares methods using PRISM 3 and the Cheng-Prusoff equation, as reported earlier, and represent the mean from at least three different determinations. All CA isoforms were recombinant ones obtained in-house. All salts/small molecules were of the highest purity available, from Sigma-Aldrich (Milan, Italy).
# SpiCA1 = target: SpiCA1; parameters: method as in References 12 and 45; conditions: ref References 12 and 45, cited from earlier work; for Ki: coral recombinant isoform, stopped flow CO2 hydrase assay; for SpiCA1 inhibition, in words: authors' grading of the KI values of Table 1
# hCA I = system: hCA I; parameters: method as in References 12 and 45; conditions: ref References 12 and 45, cited from earlier work; for hCA I inhibition, in words: authors' grading of the KI values of Table 1; for Ki: human recombinant isozyme, stopped flow CO2 hydrase assay
# hCA II = system: hCA II; parameters: method as in References 12 and 45; conditions: cited from earlier work
# SpiCA2 = system: SpiCA2; parameters: method as in References 12 and 45; conditions: ref References 12 and 45, cited from earlier work; for SpiCA2 inhibition, in words: authors' grading of the KI values of Table 1; for Ki: coral recombinant isoform, stopped flow CO2 hydrase assay
# [1] = system: coral calcification rates; parameters: method as in PMID 27513959; conditions: cited from earlier work
# [2] = recombinant coral isoform, stopped-flow CO2 hydration, 20 mM TRIS pH 8.3, 15 min preincubation; errors 5–10%, 3 assays; read-out: KI SpiCA3
# [3] = read-out: KI SpiCA3; recombinant coral isoform, stopped-flow CO2 hydration, 20 mM TRIS pH 8.3, 15 min preincubation; errors 5–10%, 3 assays
# [4] = authors' grading of the KI values of Table 1
# Chain of SpiCA3 (A0A1B0Y357 entry or part of it): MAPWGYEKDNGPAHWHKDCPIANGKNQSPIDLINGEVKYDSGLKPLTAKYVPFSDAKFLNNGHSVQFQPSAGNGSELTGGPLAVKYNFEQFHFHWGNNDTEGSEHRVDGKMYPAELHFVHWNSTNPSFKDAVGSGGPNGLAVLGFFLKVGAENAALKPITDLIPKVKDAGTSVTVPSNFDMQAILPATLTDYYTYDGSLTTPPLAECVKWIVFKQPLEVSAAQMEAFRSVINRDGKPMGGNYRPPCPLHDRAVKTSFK
Ki (SpiCA3; [2]),SMILES,Ki (SpiCA1),"SpiCA3 inhibition, in words (SpiCA3; [4])",also measured
251 nM,"NS(=O)(=O)c1ccc(N2CCCCS2(=O)=O)cc1 [SLT, sulthiame]",–,–,–
–,Nc1cc(C(F)(F)F)c(S(N)(=O)=O)cc1S(N)(=O)=O [Compound 11],367 nM,–,Ki (SpiCA3; [3]): 856 nM
–,Nc1ccc(S(=O)(=O)NCCc2ccc(S(N)(=O)=O)cc2)cc1 [Compound 24],–,well inhibited,Ki (SpiCA3; [3]): 46 nM
–,"CCN[C@H]1CN(CCCOC)S(=O)(=O)c2sc(S(N)(=O)=O)cc21 [BRZ, brinzolamide]",48 nM,low potency inhibitors,"Ki (SpiCA3; [3]): 250 nM; hCA I inhibition, in words (hCA I): didn’t affect the hCAI activity; hCA II inhibition, in words (hCA II): high potency inhibitors; SpiCA1 inhibition, in words (SpiCA1): high potency inhibitors; SpiCA2 inhibition, in words (SpiCA2): low potency inhibitors; Ki (SpiCA2): 169 nM"
–,"CCN1CCCC1CNC(=O)c1cc(S(N)(=O)=O)ccc1OC (centres unmarked) [SLP, Sulpiride]",–,worst inhibitors,–
199 nM,NS(=O)(=O)c1ccc(CO)cc1 [Compound 16],–,–,–
–,"CC(=O)Nc1nnc(S(N)(=O)=O)s1 [AAZ, acetazolamide]",–,–,inhibition of coral calcification rates [1]: up to 73%
918 nM,Nc1ccc(S(N)(=O)=O)cc1Br [Compound 9],104 nM,–,Ki (SpiCA2): 540 nM
–,NCCc1ccc(S(N)(=O)=O)cc1 [Compound 6],94 nM,worst inhibitors,Ki (SpiCA2): 577 nM
568 nM,Nc1ccc(S(=O)(=O)Nc2ccc(S(N)(=O)=O)cc2)cc1 [Compound 22],–,–,–
–,"CCOc1ccc2nc(S(N)(=O)=O)sc2c1 [EZA, ethoxzolamide]",–,–,inhibition of coral calcification rates [1]: up to 73%
–,"NS(=O)(=O)Cc1noc2ccccc12 [ZNS, zonisamide]",259 nM,worst inhibitors,Ki (SpiCA2): 645 nM
–,"NS(=O)(=O)c1nnc(NS(=O)(=O)c2ccccc2)s1 [BZA, benzolamide]",20 nM,–,Ki (SpiCA3; [3]): 394 nM; Ki (SpiCA2): 214 nM
–,"CCN[C@H]1C[C@H](C)S(=O)(=O)c2sc(S(N)(=O)=O)cc21 [DZA, Dorzolamide]",–,–,"hCA II inhibition, in words (hCA II): high potency inhibitors; SpiCA1 inhibition, in words (SpiCA1): high potency inhibitors; SpiCA2 inhibition, in words (SpiCA2): low potency inhibitors"
–,Cc1ccc(S(N)(=O)=O)cc1 [Compound 4],614 nM,–,Ki (SpiCA3; [3]): 694 nM; Ki (hCA I): 78500 nM; Ki (SpiCA2): 516 nM
–,"NS(=O)(=O)c1cc2c(cc1Cl)NCNS2(=O)=O [HCT, hydrochlorothiazide]",–,–,Ki (SpiCA3; [3]): 243 nM

Ki (SpiCA3; [2]),SMILES,Ki (SpiCA1),"SpiCA3 inhibition, in words (SpiCA3; [4])",also measured
–,NS(=O)(=O)c1ccc(CCO)cc1 [Compound 17],770 nM,well inhibited,Ki (SpiCA3; [3]): 66 nM
–,Nc1nccc(Nc2ccc(S(N)(=O)=O)cc2)n1 [Compound 19],25 nM,well inhibited,Ki (SpiCA3; [3]): 83 nM
487 nM,NS(=O)(=O)c1ccc(O)cc1 [Compound 15],–,–,–
241 nM,NS(=O)(=O)c1ccc(C(=O)O)cc1 [Compound 18],30 nM,–,–
–,"O=C1NS(=O)(=O)c2ccccc21 [SAC, Saccharin]",40 nM,worst inhibitors,Ki (hCA I): 18500 nM; Ki (SpiCA2): 104 nM
–,"CC1(C)O[C@@H]2[C@@H](CO[C@@]3(COS(N)(=O)=O)OC(C)(C)O[C@@H]23)O1 [TPM, topiramate]",29 nM,worst inhibitors,Ki (SpiCA2): 367 nM
–,"Cc1onc(-c2ccccc2)c1-c1ccc(S(N)(=O)=O)cc1 [VLX, valdecoxib]",–,–,"SpiCA2 inhibition, in words (SpiCA2): ineffective"
–,Nc1ccc(S(N)(=O)=O)cc1 [Compound 2],364 nM,worst inhibitors,–
578 nM,Cn1nc(S(N)(=O)=O)sc1=N [Compound 14],92 nM,–,–
–,"Cc1ccc(-c2cc(C(F)(F)F)nn2-c2ccc(S(N)(=O)=O)cc2)cc1 [CLX, celecoxib]",34 nM,worst inhibitors; also recorded: low potency inhibitors,"hCA I inhibition, in words (hCA I): didn’t affect the hCAI activity; SpiCA1 inhibition, in words (SpiCA1): high potency inhibitors; SpiCA2 inhibition, in words (SpiCA2): low potency inhibitors; Ki (SpiCA2): 690 nM"
92 nM,"NS(=O)(=O)c1ccc(S(=O)(=O)Nc2cccc3c(Cl)c[nH]c23)cc1 [IND, indisulam]",163 nM,well inhibited,Ki (SpiCA2): 394 nM
53 nM,NS(=O)(=O)c1ccc(CCNS(=O)(=O)c2ccc([N+](=O)[O-])cc2CO)cc1 [Compound 21],–,well inhibited,–
–,Nc1ccc(S(N)(=O)=O)cc1F [Compound 7],75 nM,worst inhibitors,–
–,NCc1ccc(S(N)(=O)=O)cc1 [Compound 5],83 nM,worst inhibitors,Ki (SpiCA2): 508 nM
62 nM,Nc1ccc(S(=O)(=O)NCc2ccc(S(N)(=O)=O)cc2)cc1 [Compound 23],–,well inhibited,–
–,Nc1ccc(S(=O)(=O)Nc2nnc(S(N)(=O)=O)s2)cc1 [Compound 20],28 nM,well inhibited,Ki (SpiCA3; [3]): 74 nM

SMILES,Ki (SpiCA3; [2]),Ki (SpiCA1),"SpiCA3 inhibition, in words (SpiCA3; [4])",also measured
Nc1ccc(S(N)(=O)=O)cc1Cl [Compound 8],1810 nM,88 nM,worst inhibitors,–
Nc1cc(Cl)c(S(N)(=O)=O)cc1S(N)(=O)=O [Compound 12],430 nM,295 nM,–,–
"CC(=O)/N=c1/sc(S(N)(=O)=O)nn1C [MZA, methazolamide]",821 nM,21 nM,–,–
Nc1nnc(S(N)(=O)=O)s1 [Compound 13],275 nM,105 nM,–,–
NS(=O)(=O)c1cccc(S(N)(=O)=O)c1 [Compound 3],667 nM,–,–,Ki (hCA I): 79 nM
